Laboratory results published in patent EP0322133A1, “Quinazoline derivatives” (SmithKline Beecham Intercredit B.V., priority 1987, dated 1989).
Counter-ions that a name gives are not always drawn.

Tested on: pentagastrin stimulated gastric acid secretion
Assay: Rat lumen perfused stomach (modified Ghosh and Schild procedure)
Type: in vivo
Conditions: i.v. administration; for inhibition at 10 µmol/kg: iv, 10µmole/kg, read-out: Rat G.S. % inhibition @ 10µmole/kg
Source text: Using a modification of the procedure described by Ghosh and Schild (Br. J. Pharmacology, 13, 54, 1958), the compounds of the following Examples were found on i.v. administration at a concentration of 10µmole/kg to cause an inhibition of pentagastrin stimulated gastric acid secretion as indicated in the following Table.

**Q.** For “2-phenylethylamino-4-(2-methylphenylamino)quinazoline [Example 16]”, which “Rat G.S. % inhibition @ 10µmole/kg” value is on record?
**A.** 31%

**Q.** For `COc1cccc2c(Nc3ccccc3C)nc(N)nc12` [Example 1, 2-amino-8-methoxy-4-(2-methylphenylamino)quinazoline], which inhibition at 10 µmol/kg is on record?
**A.** 60%

**Q.** For `COc1cccc2c(NCc3ccccc3)nc(N)nc12` [Example 2, 2-amino-8-methoxy-4-benzylaminoquinazoline], which inhibition at 10 µmol/kg is on record?
**A.** 25%

**Q.** Which inhibition at 10 µmol/kg does the source give for `COc1ccc(Nc2nc(N)nc3c(OC)cccc23)c(C)c1` [Example 3, 2-amino-8-methoxy-4-(2-methyl-4-methoxyphenylamino)quinazoline] here?
**A.** 16%

**Q.** How did the inhibition at 10 µmol/kg turn out when `COc1cccc2c(NCc3ccccc3C)nc(N)nc12` [Example 4, 2-amino-8-methoxy-4-(2-methylbenzylamino)quinazoline] was run?
**A.** 37%

**Q.** `COc1cccc2c(Nc3ccccc3C)nc(N(C)C)nc12` [Example 5, 2-dimethylamino-8-methoxy-4-(2-methylphenylamino)quinazoline] was tested. Which inhibition at 10 µmol/kg did it give?
**A.** 37%

**Q.** How did the inhibition at 10 µmol/kg turn out when `Cc1ccccc1Nc1nc(N)nc2c(C)cccc12` [Example 6, 2-amino-8-methyl-4-(2-methylphenylamino)quinazoline] was run?
**A.** 48%

**Q.** For `Cc1ccccc1Nc1nc(N)nc2ccccc12` [Example 7, 2-amino-4-(2-methylphenylamino)quinazoline], which inhibition at 10 µmol/kg is on record?
**A.** 20%

**Q.** `Cc1ccccc1Nc1nc(N2CCCC2)nc2ccccc12` [Example 8, 2-pyrrolidino-4-(2-methylphenylamino)quinazoline] was tested. Which inhibition at 10 µmol/kg did it give?
**A.** 17%

**Q.** `CCc1ccc2nc(N)nc(Nc3ccccc3C)c2c1` [Example 11, 2-amino-4-(2-methylphenylamino)-6-ethylquinazoline] was tested. Which inhibition at 10 µmol/kg did it give?
**A.** 28%

**Q.** How did the inhibition at 10 µmol/kg turn out when `CNc1nc(Nc2ccccc2C)c2cccc(OC)c2n1` [Example 13, 2-methylamino-8-methoxy-4-(2-methylphenylamino)quinazoline] was run?
**A.** 20%

**Q.** For `COc1cccc2c(Nc3ccccc3C)nc(N3CCCC3)nc12` [Example 15, 2-pyrrolidino-8-methoxy-4-(2-methylphenylamino)quinazoline], which inhibition at 10 µmol/kg is on record?
**A.** 31%

**Q.** `COc1ccccc1Nc1nc(N)nc2c(OC)cccc12` [Example 18, 2-amino-8-methoxy-4-(2-methoxyphenylamino)quinazoline] was tested. Which inhibition at 10 µmol/kg did it give?
**A.** 12%

**Q.** How did the inhibition at 10 µmol/kg turn out when `CN(c1ccccc1)c1nc(N(C)c2ccccc2)c2ccccc2n1` [Example 20, 2,4-Bis-(N-methylphenylamino)quinazoline hydrochloride] was run?
**A.** 72%

**Q.** How did the inhibition at 10 µmol/kg turn out when `COc1cccc2c(Nc3ccccc3C)nc(N(C)c3ccccc3)nc12` [Example 21, 2-(N-methylphenylamino)-4-(2-methylphenylamino)-8-methoxyquinazoline] was run?
**A.** 37%

**Q.** How did the inhibition at 10 µmol/kg turn out when `Cc1ccccc1Nc1nc(N(C)c2ccccc2)nc2ccccc12` [Example 22, 2-(N-methylphenylamino)-4-(2-methylphenylamino)quinazoline hydrochloride] was run?
**A.** 27%

**Q.** Which inhibition at 10 µmol/kg does the source give for `COc1cccc2c(N(C)c3ccccc3)nc(Nc3ccccc3C)nc12` [Example 24, 4-(N-methylphenylamino)-2-(2-methylphenylamino)-8-methoxyquinazoline] here?
**A.** 97%

**Q.** Which inhibition at 10 µmol/kg does the source give for `Cc1ccccc1CNc1nc(N)nc2ccccc12` [Example 25, 2-amino-4-(2-methylbenzylamino)quinazoline] here?
**A.** 24%

**Q.** Which inhibition at 10 µmol/kg does the source give for `Cc1ccccc1Nc1nc(N(C)c2ccccc2)c2ccccc2n1` [Example 26, 2-(2-methylphenylamino)-4-(N-methylphenylamino)quinazoline hydrochloride] here?
**A.** 79%

**Q.** With `CN(c1ccccc1)c1nc(Nc2ccccc2)nc2ccccc12` [Example 27, 2-phenylamino-4-(N-methylphenylamino)quinazoline hydrochloride] as the molecule, how does the inhibition at 10 µmol/kg read?
**A.** 71%

**Q.** For `COc1cccc2c(N(C)c3ccccc3)nc(N)nc12` [Example 29, 2-amino-4-(N-methylphenylamino)-8-methoxyquinazoline hydrochloride], which inhibition at 10 µmol/kg is on record?
**A.** 13%

**Q.** With `Cc1cc(O)ccc1Nc1nc(N(C)c2ccccc2)c2ccccc2n1` [Example 30, 2-[(4-hydroxy-2-methylphenyl)amino]-4-(N-methylphenylamino) quinazoline hydrochloride] as the molecule, how does the inhibition at 10 µmol/kg read?
**A.** 23%

**Q.** How did the inhibition at 10 µmol/kg turn out when `Cc1ccccc1CNc1nc(N(C)c2ccccc2)c2ccccc2n1` [Example 31, 2-(2-methylbenzylamino)-4-(N-methylphenylamino)quinazoline hydrochloride] was run?
**A.** 8%

**Q.** With `Cc1cc(F)ccc1Nc1nc(N(C)c2ccccc2)c2ccccc2n1` [Example 32, 2-[(2-methyl-4-fluorophenyl)amino]-4-(N-methylphenylamino)quinazoline hydrochloride] as the molecule, how does the inhibition at 10 µmol/kg read?
**A.** 96%
